Measured values: US20240034758A1, “NOVEL PEPTIDE AND USE THEREOF” (MEDI & GENE, priority 2020, published 2024)

System: mHypoE-N41 hypothalamic cells
Test: Expression of appetite-promoting genes in hypothalamic cells
Type: cell-based
Conditions: 100 nM, 24 hours; vs PBS control
Description: Furthermore, to confirm the appetite-regulating effect of the functional peptide in mHypoE-N41 hypothalamic cells, the hypothalamic cells were treated with PBS (control) and 100 nM mouse-derived functional peptide (experimental group) for 24 hours.

Substance	decrease of Agrp gene level compared to the control	decrease of NPY gene level compared to the control
human-derived functional peptide: Human IF1-derived peptide, SEQ ID NO: 2: GSDQSENVDRGAGSIREAGGAFGKREQAEEERYFRAQSREQLAALKK (listed as Homo sapiens)	47.5%	59.6%
mouse-derived functional peptide: Mouse IF1-derived peptide, SEQ ID NO: 1: VSDSSDSMDTGAGSIREAGGAFGKREKAEEDRYFREKTKEQLAALRK (listed as Mus musculus)	50.2%	48.8%
